According to ChEMBL document CHEMBL3046062, “Anti-HIV, antimycobacterial and antimicrobial studies of newly synthesized 1,2,4-triazole clubbed benzothiazoles” (Med Chem Res, 2013):
≈ marks a conversion by molar mass, not a printed value.

Assays:
[1] = system: Aspergillus clavatus; test: Antifungal activity against Aspergillus clavatus MTCC 323 after overnight incubation by broth microdilution method; type: functional
[2] = system: Candida albicans; test: Antifungal activity against Candida albicans MTCC 227 after overnight incubation by broth microdilution method; type: functional
[3] = system: Aspergillus niger; test: Antifungal activity against Aspergillus niger MTCC 282 after overnight incubation by broth microdilution method; type: functional
[4] = Cytotoxicity against Homo sapiens (human) MT4 cells after 5 days by MTT assay; type: cell-based
[5] = system: Pseudomonas aeruginosa; test: Antibacterial activity against Pseudomonas aeruginosa MTCC 2488 after overnight incubation by broth microdilution method; type: functional
[6] = system: Mycobacterium tuberculosis; test: Growth inhibition of Mycobacterium tuberculosis H37Rv at MIC after 28 days by Lowenstein-Jensen agar method; type: functional
[7] = system: Human immunodeficiency virus 2; test: Antiviral activity against Human immunodeficiency virus type 2 (ISOLATE ROD) infected MT4 cells assessed as inhibition of virus-induced cytopathogenicity after 5 days by MTT assay; type: functional, organism-based; conditions: Human immunodeficiency virus 2, ISOLATE ROD, MT4, 120 h
[8] = system: Staphylococcus aureus; test: Antibacterial activity against Staphylococcus aureus MTCC 96 after overnight incubation by broth microdilution method; type: functional
[9] = system: Human immunodeficiency virus 1; test: Antiviral activity against Human immunodeficiency virus 1 IIIB infected MT4 cells assessed as inhibition of virus-induced cytopathogenicity after 5 days by MTT assay; type: functional, organism-based; conditions: MT4, 120 h
[10] = Selectivity index, ratio of CC50 for human MT4 cells to IC50 for HIV1 3B; type: functional
[11] = system: Streptococcus pyogenes; test: Antibacterial activity against Streptococcus pyogenes MTCC 443 after overnight incubation by broth microdilution method; type: functional
[12] = Selectivity index, ratio of CC50 for human MT4 cells to IC50 for HIV2 ROD; type: functional
[13] = system: Mycobacterium tuberculosis; test: Antitubercular activity against Mycobacterium tuberculosis H37Rv after 28 days by Lowenstein-Jensen agar method; type: functional; conditions: 672 h
[14] = system: Escherichia coli; test: Antibacterial activity against Escherichia coli MTCC 442 after overnight incubation by broth microdilution method; type: functional

Which MIC99 [1] does the source give for `Clc1ccc(-c2nnc(-c3cccnc3)o2)cc1` here?
Its MIC99 is 1000 µg/mL (≈ 3880 µM).

What about the MIC99 [2] of the same compound?
The MIC99 was 500 µg/mL (≈ 1940 µM).

What about the MIC99 [3] of the same compound?
Its MIC99 is 1000 µg/mL (≈ 3880 µM).

And the CC50 at 120 h [4]?
Its CC50 at 120 h is 4.49 µg/mL (≈ 17.4 µM).

And the MIC99 [5]?
The MIC99 was 500 µg/mL (≈ 1940 µM).

What about the “growth inhibition (GI)” value [6] of the same compound?
Its value is 98%.

And the IC50 [7]?
The IC50 was > 4.49 µg/mL.

And the MIC99 [8]?
Its MIC99 is 200 µg/mL (≈ 776 µM).

And the IC50 [9]?
The IC50 was > 4.49 µg/mL.

What about the “Ratio CC50/IC50” value [10] of the same compound?
The value was <1.

What about the MIC99 [11] of the same compound?
Its MIC99 is 250 µg/mL (≈ 970 µM).

And the “Ratio CC50/IC50” value [12]?
The value was <1.

And the MIC [13]?
The MIC was 500 µg/mL (≈ 1940 µM).

And the MIC99 [14]?
The MIC99 was 500 µg/mL (≈ 1940 µM).

Which MIC99 [1] does the source give for `Fc1ccc2nc(Nn3c(-c4ccc(Cl)cc4)nnc3-c3cccnc3)sc2c1` here?
The MIC99 was 500 µg/mL (≈ 1180 µM).

What about the MIC99 [2] of the same compound?
Its MIC99 is 200 µg/mL (≈ 473 µM).

What about the MIC99 [3] of the same compound?
The MIC99 was 500 µg/mL (≈ 1180 µM).

What about the CC50 at 120 h [4] of the same compound?
The CC50 at 120 h was 92.9 µg/mL (≈ 220 µM).

And the MIC99 [5]?
The MIC99 was 62.5 µg/mL (≈ 148 µM).

What about the “growth inhibition (GI)” value [6] of the same compound?
Its value is 98%.

And the IC50 [7]?
Its IC50 is > 92.9 µg/mL.

And the MIC99 [8]?
The MIC99 was 250 µg/mL (≈ 591 µM).

What about the IC50 [9] of the same compound?
The IC50 was > 92.9 µg/mL.

And the “Ratio CC50/IC50” value [10]?
The value was <1.

And the MIC99 [11]?
The MIC99 was 500 µg/mL (≈ 1180 µM).

And the “Ratio CC50/IC50” value [12]?
Its value is <1.

And the MIC [13]?
The MIC was 62.5 µg/mL (≈ 148 µM).

And the MIC99 [14]?
The MIC99 was 500 µg/mL (≈ 1180 µM).

Which MIC99 [1] does the source give for `Clc1ccc(-c2nnc(-c3cccnc3)n2Nc2nc3ccc(Br)cc3s2)cc1` here?
Its MIC99 is 1000 µg/mL (≈ 2070 µM).

What about the MIC99 [2] of the same compound?
The MIC99 was 100 µg/mL (≈ 207 µM).

And the MIC99 [3]?
The MIC99 was 500 µg/mL (≈ 1030 µM).

What about the CC50 at 120 h [4] of the same compound?
The CC50 at 120 h was 29.6 µg/mL (≈ 61.2 µM).

And the MIC99 [5]?
The MIC99 was 500 µg/mL (≈ 1030 µM).

What about the “growth inhibition (GI)” value [6] of the same compound?
Its value is 96%.

And the IC50 [7]?
Its IC50 is > 29.6 µg/mL.

What about the MIC99 [8] of the same compound?
The MIC99 was 500 µg/mL (≈ 1030 µM).

What about the IC50 [9] of the same compound?
Its IC50 is > 29.6 µg/mL.

What about the “Ratio CC50/IC50” value [10] of the same compound?
The value was <1.

What about the MIC99 [11] of the same compound?
The MIC99 was 1000 µg/mL (≈ 2070 µM).

What about the “Ratio CC50/IC50” value [12] of the same compound?
Its value is <1.

What about the MIC [13] of the same compound?
Its MIC is 500 µg/mL (≈ 1030 µM).

And the MIC99 [14]?
Its MIC99 is 500 µg/mL (≈ 1030 µM).

For `O=[N+]([O-])c1ccc2nc(Nn3c(-c4ccc(Cl)cc4)nnc3-c3cccnc3)sc2c1`, which MIC99 [1] is on record?
Its MIC99 is > 1000 µg/mL.

And the MIC99 [2]?
Its MIC99 is 500 µg/mL (≈ 1110 µM).

And the MIC99 [3]?
The MIC99 was 500 µg/mL (≈ 1110 µM).

And the CC50 at 120 h [4]?
Its CC50 at 120 h is 62.1 µg/mL (≈ 138 µM).

And the MIC99 [5]?
Its MIC99 is 125 µg/mL (≈ 278 µM).

What about the “growth inhibition (GI)” value [6] of the same compound?
Its value is 98%.

What about the IC50 [7] of the same compound?
Its IC50 is > 62.1 µg/mL.

And the MIC99 [8]?
Its MIC99 is 125 µg/mL (≈ 278 µM).

And the IC50 [9]?
The IC50 was > 62.1 µg/mL.

And the “Ratio CC50/IC50” value [10]?
The value was <1.

And the MIC99 [11]?
Its MIC99 is 100 µg/mL (≈ 222 µM).

What about the “Ratio CC50/IC50” value [12] of the same compound?
The value was <1.

And the MIC [13]?
Its MIC is 500 µg/mL (≈ 1110 µM).

And the MIC99 [14]?
The MIC99 was 250 µg/mL (≈ 556 µM).

For `Cc1ccc2nc(Nn3c(-c4ccc(Cl)cc4)nnc3-c3cccnc3)sc2c1`, which MIC99 [1] is on record?
The MIC99 was 1000 µg/mL (≈ 2390 µM).

What about the MIC99 [2] of the same compound?
Its MIC99 is 1000 µg/mL (≈ 2390 µM).

And the MIC99 [3]?
Its MIC99 is 1000 µg/mL (≈ 2390 µM).

What about the CC50 at 120 h [4] of the same compound?
The CC50 at 120 h was 75.5 µg/mL (≈ 180 µM).

What about the MIC99 [5] of the same compound?
Its MIC99 is 500 µg/mL (≈ 1190 µM).

What about the “growth inhibition (GI)” value [6] of the same compound?
Its value is 95%.

And the IC50 [7]?
Its IC50 is > 75.5 µg/mL.

What about the MIC99 [8] of the same compound?
Its MIC99 is 500 µg/mL (≈ 1190 µM).

What about the IC50 [9] of the same compound?
The IC50 was > 75.5 µg/mL.

What about the “Ratio CC50/IC50” value [10] of the same compound?
Its value is <1.

What about the MIC99 [11] of the same compound?
The MIC99 was 500 µg/mL (≈ 1190 µM).

And the “Ratio CC50/IC50” value [12]?
The value was <1.

And the MIC [13]?
Its MIC is 50 µg/mL (≈ 119 µM).

And the MIC99 [14]?
Its MIC99 is 500 µg/mL (≈ 1190 µM).

For `COc1ccc2nc(Nn3c(-c4ccc(Cl)cc4)nnc3-c3cccnc3)sc2c1`, which MIC99 [1] is on record?
Its MIC99 is 500 µg/mL (≈ 1150 µM).

And the MIC99 [2]?
The MIC99 was 250 µg/mL (≈ 575 µM).

What about the MIC99 [3] of the same compound?
The MIC99 was 500 µg/mL (≈ 1150 µM).

And the CC50 at 120 h [4]?
Its CC50 at 120 h is 66.8 µg/mL (≈ 154 µM).

And the MIC99 [5]?
The MIC99 was 250 µg/mL (≈ 575 µM).

And the “growth inhibition (GI)” value [6]?
Its value is 98%.

And the IC50 [7]?
The IC50 was > 66.8 µg/mL.

And the MIC99 [8]?
The MIC99 was 500 µg/mL (≈ 1150 µM).

And the IC50 [9]?
Its IC50 is > 66.8 µg/mL.

What about the “Ratio CC50/IC50” value [10] of the same compound?
Its value is <1.

And the MIC99 [11]?
Its MIC99 is 500 µg/mL (≈ 1150 µM).

And the “Ratio CC50/IC50” value [12]?
Its value is <1.

What about the MIC [13] of the same compound?
The MIC was 500 µg/mL (≈ 1150 µM).

And the MIC99 [14]?
The MIC99 was 500 µg/mL (≈ 1150 µM).

With `Clc1ccc(-c2nnc(-c3cccnc3)n2Nc2nc3ccc(Cl)cc3s2)cc1` as the compound, how does the MIC99 [1] read?
Its MIC99 is 1000 µg/mL (≈ 2280 µM).

And the MIC99 [2]?
Its MIC99 is 100 µg/mL (≈ 228 µM).

What about the MIC99 [3] of the same compound?
The MIC99 was 500 µg/mL (≈ 1140 µM).

And the CC50 at 120 h [4]?
The CC50 at 120 h was 54.3 µg/mL (≈ 124 µM).

And the MIC99 [5]?
Its MIC99 is 500 µg/mL (≈ 1140 µM).

What about the “growth inhibition (GI)” value [6] of the same compound?
The value was 96%.

What about the IC50 [7] of the same compound?
The IC50 was > 54.3 µg/mL.

What about the MIC99 [8] of the same compound?
The MIC99 was 250 µg/mL (≈ 569 µM).

And the IC50 [9]?
Its IC50 is > 54.3 µg/mL.

And the “Ratio CC50/IC50” value [10]?
Its value is <1.

What about the MIC99 [11] of the same compound?
Its MIC99 is 500 µg/mL (≈ 1140 µM).

What about the “Ratio CC50/IC50” value [12] of the same compound?
Its value is <1.

And the MIC [13]?
The MIC was 250 µg/mL (≈ 569 µM).

And the MIC99 [14]?
The MIC99 was 1000 µg/mL (≈ 2280 µM).
